For one assay, the target named is human DGKζ (Homo sapiens (Human), UniProt Q13574). Kind of assay: DGKζ LIPGLO assay (extruded liposome substrate, ADP-Glo luminescence). Type of assay: biochemical. The settings on record: liposome assay; read-out: DGK zeta LIPGLO IC50. Background: ADP-Glo turns the ADP formed in a reaction into a luminescent signal.
Another assay has as its target human DGKα (Homo sapiens (Human), UniProt P23743). Kind of assay: DGKα ADPGLO assay (detergent/lipid micelle substrate). Type of assay: biochemical. The settings on record: truncated DGK alpha; read-out: DGK alpha ADPGLO (Truncated) IC50. As to the method: DGK Alpha ADPGLO (Truncated) IC50 (uM)
The detergent/lipid micelle was prepared by combining 15 g phosphatidylserine (Avanti 840035P) and 1 g diacylglycerol (8008110) and dissolving into 150 mL chloroform in a 2 L round bottom flask. Chloroform was removed under high vacuum by rotary evaporation. […] The lipid/detergent solution was split into 5 mL aliquots and stored at −80° C.

Assay [1] relates to human venous whole blood (IFN-γ). In words: Human whole blood IFN-γ assay. Type of assay: cell-based. The settings on record: whole blood, normalized to 3 μM reference compound as 100% activation, read-out: IFN-γ Whole Blood Normalized EC50. How it is done:
Human venous whole blood (22.5 μL per well), obtained from healthy donors, was pre-treated with compounds for one hour at 37° C. in a humidified 95% air/5% CO2 incubator. The blood was stimulated with 2.5 μL anti-human CD3 and anti-CD28 mAb at a final concentration of 1 μg/mL each for 24 hours at 37° C. IFN-γ in the supernatants was measured using AlphLISA kit (Cat #AL217).

In another assay the test system is whole blood (pERK). In words: pERK Whole Blood assay (Table A; no whole-blood pERK method described). Type of assay: cell-based. The settings on record: normalized.

Molecules are shown by their SMILES. Where two headings read alike, the source gives them in different places.

human DGKα, sequence (P23743 whole entry, looked up, the tested form may be a part): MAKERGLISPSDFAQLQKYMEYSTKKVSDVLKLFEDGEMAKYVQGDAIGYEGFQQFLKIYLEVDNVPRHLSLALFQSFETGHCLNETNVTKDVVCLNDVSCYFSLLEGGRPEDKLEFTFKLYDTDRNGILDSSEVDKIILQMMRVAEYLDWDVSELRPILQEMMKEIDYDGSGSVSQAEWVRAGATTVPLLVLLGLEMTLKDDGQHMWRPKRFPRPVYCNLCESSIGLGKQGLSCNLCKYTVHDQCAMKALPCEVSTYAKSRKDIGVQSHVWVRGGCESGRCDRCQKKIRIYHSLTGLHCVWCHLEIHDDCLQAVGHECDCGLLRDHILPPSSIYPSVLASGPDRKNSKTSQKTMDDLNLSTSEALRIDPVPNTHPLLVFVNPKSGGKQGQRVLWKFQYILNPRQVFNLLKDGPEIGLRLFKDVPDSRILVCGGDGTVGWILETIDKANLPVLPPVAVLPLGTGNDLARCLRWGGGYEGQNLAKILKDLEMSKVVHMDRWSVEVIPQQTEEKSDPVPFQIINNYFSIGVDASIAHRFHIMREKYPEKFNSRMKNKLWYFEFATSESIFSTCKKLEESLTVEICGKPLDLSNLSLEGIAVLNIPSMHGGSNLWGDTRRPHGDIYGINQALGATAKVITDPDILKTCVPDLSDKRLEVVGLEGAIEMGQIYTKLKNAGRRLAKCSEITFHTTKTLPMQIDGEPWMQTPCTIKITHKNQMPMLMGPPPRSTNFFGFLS
human DGKζ, sequence (Q13574 other isoform, or with tags, fused parts or gaps): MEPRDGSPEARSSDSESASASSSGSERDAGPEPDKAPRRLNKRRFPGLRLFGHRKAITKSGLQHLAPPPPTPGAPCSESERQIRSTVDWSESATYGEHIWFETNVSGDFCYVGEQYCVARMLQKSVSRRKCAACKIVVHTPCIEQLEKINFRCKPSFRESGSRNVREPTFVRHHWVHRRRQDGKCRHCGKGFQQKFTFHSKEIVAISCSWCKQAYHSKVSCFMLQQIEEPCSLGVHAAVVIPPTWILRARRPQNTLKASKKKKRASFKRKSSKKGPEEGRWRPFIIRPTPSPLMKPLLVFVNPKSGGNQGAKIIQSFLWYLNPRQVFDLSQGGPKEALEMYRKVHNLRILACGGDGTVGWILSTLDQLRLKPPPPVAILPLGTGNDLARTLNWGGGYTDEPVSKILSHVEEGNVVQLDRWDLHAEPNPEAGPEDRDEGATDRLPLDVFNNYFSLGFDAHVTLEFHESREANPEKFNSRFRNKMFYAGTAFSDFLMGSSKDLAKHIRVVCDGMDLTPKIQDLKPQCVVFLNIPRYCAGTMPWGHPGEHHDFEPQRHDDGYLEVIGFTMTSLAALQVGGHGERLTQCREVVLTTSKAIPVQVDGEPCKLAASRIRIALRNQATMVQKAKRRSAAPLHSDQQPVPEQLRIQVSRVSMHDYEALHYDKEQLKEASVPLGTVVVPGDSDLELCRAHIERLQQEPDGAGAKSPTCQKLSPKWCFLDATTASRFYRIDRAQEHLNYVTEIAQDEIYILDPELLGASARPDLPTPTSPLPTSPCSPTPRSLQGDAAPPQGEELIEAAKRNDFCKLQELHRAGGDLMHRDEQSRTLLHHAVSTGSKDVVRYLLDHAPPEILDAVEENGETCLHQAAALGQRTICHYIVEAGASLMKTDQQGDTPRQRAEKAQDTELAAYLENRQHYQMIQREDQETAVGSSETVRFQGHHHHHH

Broadly, the IC50 is the concentration needed to halve the response being measured. Broadly, the EC50 is the concentration needed to bring the measured effect to its halfway point. As to `CC[C@H]1CN(C(C)c2cccc(OC)n2)[C@H](CC)CN1c1nc(=O)n(C)c2ccc(C#N)nc12` (stereo partly drawn) [Example 215, 4-((2S,5R)-2,5-diethyl-4-(1-(6-methoxypyridin-2-yl)ethyl)piperazin-1-yl)-1-methyl-2-oxo-1,2-dihydropyrido[3,2-d]pyrimidine-6-carbonitrile], the IC50 came to 110 nM at human DGKζ, 77 nM on human DGKα and 20000 nM with whole blood (pERK). In addition, in assay [1], the 50% effective concentration (EC50) was found to be 170 nM.
For `CCC(c1ccc(CN2CCOCC2)cc1)N1C[C@H](CC)N(c2nc(=O)n(C)c3ccc(C#N)nc23)C[C@H]1CC` (stereo partly drawn) [Example 267, 4-((2S,5R)-2,5-diethyl-4-(1-(4-(morpholinomethyl)phenyl)propyl)piperazin-1-yl)-1-methyl-2-oxo-1,2-dihydropyrido[3,2-d]pyrimidine-6-carbonitrile], in that order: 100 nM, 41 nM, 1020 nM and 45 nM.
As to `CC[C@H]1CN(C(C)c2ccc(CN3CCC[C@@H](O)C3)cc2)[C@H](CC)CN1c1nc(=O)n(C)c2ccc(C#N)nc12` (stereo partly drawn) [Example 289, 4-((2S,5R)-2,5-diethyl-4-(1-(4-(((R)-3-hydroxypiperidin-1-yl)methyl)phenyl)ethyl)piperazin-1-yl)-1-methyl-2-oxo-1,2-dihydropyrido[3,2-d]pyrimidine-6-carbonitrile], the 50% inhibitory concentration (IC50) was found to be 8640 nM at human DGKζ, 2700 nM on human DGKα and 350 nM with whole blood (pERK). The concentration giving a half-maximal response (EC50) in assay [1] (Homo sapiens) is 5720 nM.
On to `CC[C@H]1CN(C(C)c2cccc(OC)n2)[C@H](CC)CN1c1nc(=O)n(C)c2ccc(C#N)nc12` (stereo partly drawn) [Example 214, 4-((2S,5R)-2,5-diethyl-4-(1-(6-methoxypyridin-2-yl)ethyl)piperazin-1-yl)-1-methyl-2-oxo-1,2-dihydropyrido[3,2-d]pyrimidine-6-carbonitrile], for which the values for the half-maximal inhibitory concentration (IC50) at human DGKζ, at human DGKα and in the assay with whole blood (pERK) were 6620 nM, 2010 nM and 66 nM, respectively. Also, the concentration for a half-maximal effect (EC50) in assay [1] turned out to be 20000 nM.
With `CC[C@H]1CN(C(C)c2cccc(OC(F)F)n2)[C@H](CC)CN1c1nc(=O)n(C)c2ccc(C#N)nc12` (stereo partly drawn) [Example 241, 4-((2S,5R)-4-(1-(6-(difluoromethoxy)pyridin-2-yl)ethyl)-2,5-diethylpiperazin-1-yl)-1-methyl-2-oxo-1,2-dihydropyrido[3,2-d]pyrimidine-6-carbonitrile], the values for the half-inhibitory concentration (IC50) at human DGKζ, at human DGKα and in the assay on whole blood (pERK) were 920 nM, 460 nM and 190 nM, respectively. In addition, the EC50 in assay [1] turned out to be 2420 nM.
`CCC(c1ccc(C(C)(C)C#N)cc1)N1C[C@H](CC)N(c2nc(=O)n(C)c3ccc(C#N)nc23)C[C@H]1CC` (stereo partly drawn) [Example 251, 4-((2S,5R)-4-(1-(4-(2-cyanopropan-2-yl)phenyl)propyl)-2,5-diethylpiperazin-1-yl)-1-methyl-2-oxo-1,2-dihydropyrido[3,2-d]pyrimidine-6-carbonitrile]: the IC50 stood at 18 nM on human DGKζ, 34 nM at human DGKα and 1580 nM with whole blood (pERK).
On the same counts, the results for `CC[C@H]1CN(C(C)c2ccc(CN3CC4(COC4)C3)cc2)[C@H](CC)CN1c1nc(=O)n(C)c2ccc(C#N)nc12` (stereo partly drawn) [Example 280, 4-((2S,5R)-4-(1-(4-((2-oxa-6-azaspiro[3.3]heptan-6-yl)methyl)phenyl)ethyl)-2,5-diethylpiperazin-1-yl)-1-methyl-2-oxo-1,2-dihydropyrido[3,2-d]pyrimidine-6-carbonitrile] are 125000 nM, 42700 nM and 150 nM.
In the case of `CC[C@H]1CN(C(C)c2cccc(OC(F)(F)F)n2)[C@H](CC)CN1c1nc(=O)n(C)c2ccc(C#N)nc12` (stereo partly drawn) [Example 245, 4-((2S,5R)-2,5-diethyl-4-(1-(6-(trifluoromethoxy)pyridin-2-yl)ethyl)piperazin-1-yl)-1-methyl-2-oxo-1,2-dihydropyrido[3,2-d]pyrimidine-6-carbonitrile], the half-maximal inhibitory concentration (IC50) was found to be 290 nM on human DGKζ, 18 nM at human DGKα and 410 nM with whole blood (pERK). In addition, the EC50 in assay [1] (Homo sapiens) came to 220 nM.
For `CC[C@H]1CN(C(C)c2ccc(OC(C)(C)COC)cc2)[C@H](CC)CN1c1nc(=O)n(C)c2ccc(C#N)nc12` (stereo partly shown) [Example 188], the IC50 stood at 310 nM at human DGKζ, 14 nM on human DGKα and 270 nM in the assay on whole blood (pERK). Besides, the EC50 in assay [1] came out at 73 nM.
As to `CCC(c1ccc(C2CC2)cc1F)N1C[C@H](C)N(c2nc(=O)n(C)c3ccc(C#N)nc23)C[C@H]1CC` (stereo partly drawn) [Example 302, 4-((2S,5R)-4-(1-(4-cyclopropyl-2-fluorophenyl)propyl)-5-ethyl-2-methylpiperazin-1-yl)-1-methyl-2-oxo-1,2-dihydropyrido[3,2-d]pyrimidine-6-carbonitrile], the half-inhibitory concentration (IC50) was 43 nM at human DGKζ, 9 nM on human DGKα and 34 nM in the assay with whole blood (pERK).
On to `CCC(c1ccc(C(C)(C)C#N)cc1)N1C[C@H](CC)N(c2nc(=O)n(C)c3ccc(C#N)nc23)C[C@H]1CC` (stereo partly drawn) [Example 252, 4-((2S,5R)-4-(1-(4-(2-cyanopropan-2-yl)phenyl)propyl)-2,5-diethylpiperazin-1-yl)-1-methyl-2-oxo-1,2-dihydropyrido[3,2-d]pyrimidine-6-carbonitrile], for which the IC50 came out at 780 nM on human DGKζ, 270 nM on human DGKα and 4280 nM in the assay on whole blood (pERK).
Consider `CC[C@H]1CN(C(C)c2ccc(CN3CCN(C(C)=O)CC3)cc2)[C@H](CC)CN1c1nc(=O)n(C)c2ccc(C#N)nc12` (stereo partly drawn) [Example 283, 4-((2S,5R)-4-(1-(4-((4-acetylpiperazin-1-yl)methyl)phenyl)ethyl)-2,5-diethylpiperazin-1-yl)-1-methyl-2-oxo-1,2-dihydropyrido[3,2-d]pyrimidine-6-carbonitrile], for which the 50% inhibitory concentration (IC50) on human DGKζ is 2430 nM; at human DGKα it was 200 nM; in the assay with whole blood (pERK), 6260 nM. Further, the 50% effective concentration (EC50) in assay [1] worked out at 1250 nM.
Take `CCC(c1ccc(OC(C)C)cc1)N1C[C@H](CC)N(c2nc(=O)n(C)c3ccc(C#N)nc23)C[C@H]1CC` (stereo partly drawn) [Example 234, 4-((2S,5R)-2,5-diethyl-4-(1-(4-isopropoxyphenyl)propyl)piperazin-1-yl)-1-methyl-2-oxo-1,2-dihydropyrido[3,2-d] pyrimidine-6-carbonitrile]: the half-inhibitory concentration (IC50) on human DGKζ amounted to 59 nM; on human DGKα, 36 nM; in the assay on whole blood (pERK), 80 nM.
On the same counts, the results for `CC[C@H]1CN(C(C)c2ccc(CN3CC4(COC4)C3)cc2)[C@H](CC)CN1c1nc(=O)n(C)c2ccc(C#N)nc12` (stereo partly drawn) [Example 279, 4-((2S,5R)-4-(1-(4-((2-oxa-6-azaspiro[3.3]heptan-6-yl)methyl)phenyl)ethyl)-2,5-diethylpiperazin-1-yl)-1-methyl-2-oxo-1,2-dihydropyrido[3,2-d]pyrimidine-6-carbonitrile] are 62400 nM, 17000 nM and 2920 nM.
Regarding `CC[C@@H]1CN(c2nc(=O)n(C)c3ccc(C#N)nc23)[C@@H](C)CN1C(c1ccc(Cl)cc1)c1ccccn1` (single isomer, unassigned) [Example 96], the IC50 at human DGKα was determined as 96 nM; in the assay on whole blood (pERK) it was 200 nM. The EC50 in assay [1] was 57 nM.
For the compound `CC[C@@H]1CN(c2nc(=O)n(C)c3ccc(C#N)nc23)[C@@H](C)CN1C(c1ccc(OC(F)(F)F)cc1)c1ccccn1` (single isomer, unassigned) [Example 93], the figures for the half-maximal inhibitory concentration (IC50) on human DGKζ, at human DGKα and in the assay on whole blood (pERK) were 520 nM, 18 nM and 670 nM, respectively. In addition, the EC50 in assay [1] amounted to 170 nM.
On the same counts, the results for `CC[C@H]1CN(C(C)c2cnc(N3CCOCC3)nc2)[C@H](CC)CN1c1nc(=O)n(C)c2ccc(C#N)nc12` (stereo partly drawn) [Example 206, 4-((2S,5R)-2,5-diethyl-4-(1-(2-morpholinopyrimidin-5-yl)ethyl)piperazin-1-yl)-1-methyl-2-oxo-1,2-dihydropyrido[3,2-d] pyrimidine-6-carbonitrile] are 51000 nM, 3980 nM, 80 nM and 20000 nM.
Turning to `CC[C@H]1CN(C(C)c2ccc(CN3C[C@@H](C)O[C@@H](C)C3)cc2)[C@H](CC)CN1c1nc(=O)n(C)c2ccc(C#N)nc12` (stereo partly drawn) [Example 292, 4-((2S,5R)-4-(1-(4-(((2S,6R)-2,6-dimethylmorpholino)methyl)phenyl)ethyl)-2,5-diethylpiperazin-1-yl)-1-methyl-2-oxo-1,2-dihydropyrido[3,2-d]pyrimidine-6-carbonitrile], the figures for the half-maximal inhibitory concentration (IC50) on human DGKζ, at human DGKα and with whole blood (pERK) were 1010 nM, 210 nM and 1100 nM, respectively.
On the same counts, the results for `CC[C@H]1CN(C(C)c2ccc(CN3CCC[C@@H](O)C3)cc2)[C@H](CC)CN1c1nc(=O)n(C)c2ccc(C#N)nc12` (stereo partly drawn) [Example 290, 4-((2S,5R)-2,5-diethyl-4-(1-(4-(((R)-3-hydroxypiperidin-1-yl)methyl)phenyl)ethyl)piperazin-1-yl)-1-methyl-2-oxo-1,2-dihydropyrido[3,2-d]pyrimidine-6-carbonitrile] are 57200 nM, 1950 nM and 20000 nM.
